In US20020106707A1, “Compositions and methods for detecting and quantifying COX-2 activity and anandamide metabolites” (priority 2000, published 2002):
Read-outs that look alike come from different tables or passages of the source. One block for each compound: values may come before it.

How the values were obtained:
[1] = rat
[2] = biological target: T1, COX-2 (Mus musculus, UniProt Q05769); conditions: 3 μM inhibitor; RAW264.7 cells activated with LPS (1 μg/mL) and IFN-γ (10 units/mL), AEA 20 μM
T1 sequence (Q05769 18-604): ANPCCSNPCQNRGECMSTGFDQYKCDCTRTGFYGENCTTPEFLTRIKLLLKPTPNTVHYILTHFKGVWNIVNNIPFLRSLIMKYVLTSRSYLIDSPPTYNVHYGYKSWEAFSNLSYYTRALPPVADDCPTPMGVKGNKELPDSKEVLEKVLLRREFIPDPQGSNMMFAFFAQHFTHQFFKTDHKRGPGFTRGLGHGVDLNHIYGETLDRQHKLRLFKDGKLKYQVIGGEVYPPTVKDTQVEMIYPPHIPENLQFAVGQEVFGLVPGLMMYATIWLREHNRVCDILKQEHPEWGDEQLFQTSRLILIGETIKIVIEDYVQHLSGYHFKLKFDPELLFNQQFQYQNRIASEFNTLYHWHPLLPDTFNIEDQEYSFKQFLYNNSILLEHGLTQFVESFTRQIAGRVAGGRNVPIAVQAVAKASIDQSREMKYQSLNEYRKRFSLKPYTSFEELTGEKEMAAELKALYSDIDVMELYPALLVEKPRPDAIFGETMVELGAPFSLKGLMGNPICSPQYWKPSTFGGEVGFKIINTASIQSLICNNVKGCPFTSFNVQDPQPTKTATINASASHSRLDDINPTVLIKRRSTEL

SMILES: CCCCC[C@H](O)/C=C/[C@H]1[C@H](O)CC(=O)[C@@H]1C/C=C\CCCC(=O)NCCO [PGE2-EA, prostaglandin E2 ethanolamide]
apparent volume of distribution ([1]; 2 mg/kg PGE2-EA IV): 300 to 400 mL
detection at 2 hours post-dosing ([1]; 2 mg/kg PGE2-EA IV, 2 hours post-dosing): routinely detected
calculated plasma half-life ([1]; 2 mg/kg PGE2-EA IV, n=3): 6.33 ± 0.833 min

PGD2-EA biosynthesis [2]: inhibited
SMILES: COc1ccc2c(c1)c(CC(=O)NCCc1ccccc1)c(C)n2C(=O)c1ccc(Cl)cc1 [indomethacin phenethylamide, 2-[1-(4-chlorobenzoyl)-5-methoxy-2-methyl-1H-indol-3-yl]-N-phenethylacetamide]

detection at 2 hours post-dosing ([1]; in vivo, iv, 2 mg/kg): routinely detected
SMILES: CCCCCC(=O)CCC1C(O)CC(=O)C1C/C=C\CCCC(=O)NCCO (centres unmarked) [13,14-dihydro-15-keto-PGE2-EA]
